Experimental data as given in patent EP0297159A1, “[N-Acyl, 1,7-Di-Aline] calcitonins, method for their preparation, pharmaceutical compositions and use” (Armour Pharmaceutical Company, priority 1987, dated 1989).
Where a SMILES comes first, the peptide text is derived from it. The star is where a group is joined. Propionyl = CCC(=O)*

Test system: serum calcium concentration
Details: rat, in vivo, sc
Experimental: Rats were divided into four groups of seven animals, and each group was assigned at random to a dose of standard or test solution. Low and high doses were chosen from the linear portion of the dose-response curve. For the salmon calcitonin standard, the values were 0.7 and 2.1 mcg. peptide/100 g. body weight (BW). This dose approximates 3 and 9 MU/100 g. BW. Peptides were given by subcutaneous injection (0.2 ml./100 g. BW) and blood was withdrawn 1 hour later for serum calcium determination. Sera are processed and analyzed within two hours of collection.

## CCC(=O)N[C@@H](C)C(=O)N[C@@H](CO)C(=O)N[C@@H](CC(N)=O)C(=O)N[C@@H](CC(C)C)C(=O)N[C@@H](CO)C(=O)N[C@H](C(=O)N[C@@H](C)C(=O)N[C@H](C(=O)N[C@@H](CC(C)C)C(=O)NCC(=O)N[C@@H](CCCCN)C(=O)N[C@@H](CC(C)C)C(=O)N[C@@H](CO)C(=O)N[C@@H](CCC(N)=O)C(=O)N[C@@H](CCC(=O)O)C(=O)N[C@@H](CC(C)C)C(=O)N[C@@H](Cc1c[nH]cn1)C(=O)N[C@@H](CCCCN)C(=O)N[C@@H](CC(C)C)C(=O)N[C@@H](CCC(N)=O)C(=O)N[C@H](C(=O)N[C@@H](Cc1ccc(O)cc1)C(=O)N1CCC[C@H]1C(=O)N[C@@H](CCCNC(=N)N)C(=O)N[C@H](C(=O)N[C@@H](CC(N)=O)C(=O)N[C@H](C(=O)NCC(=O)N[C@@H](CO)C(=O)NCC(=O)N[C@H](C(=O)N1CCC[C@H]1C(N)=O)[C@@H](C)O)[C@@H](C)O)[C@@H](C)O)[C@@H](C)O)C(C)C)[C@@H](C)O [[N^α-Propionyl-Di-Ala^1,7]SCT, [N^α-Propionyl, 1,7-Di-Alanine]salmon calcitonin] (Propionyl-ASNLSTAVLGKLSQELHKLQTYPRTNTGSGTP-NH2)
  biological potency: 5450 IU/mg
